Measured values taken from patent publication US10722501B2 (BAYER AKTIENGESELLSCHAFT, priority 2016, dated 2020).

What follows are compounds tested against T1, recombinant full-length human prolyl endopeptidase (PREP) (Homo sapiens, UniProt P48147) (assay: Biochemical human prolyl endopeptidase (PREP) assay with fluorescently labelled substrate). Settings: substrate Z-Gly-Pro-AMC 50 μM, 32° C., 60 min; some as mean values from multiple independent determinations.
T1 construct: To recombinant full-length human prolyl endopeptidase (PREP, R&D-Systems, 4308-SE); purchased R&D-Systems 4308-SE
T1 sequence (P48147 1-710): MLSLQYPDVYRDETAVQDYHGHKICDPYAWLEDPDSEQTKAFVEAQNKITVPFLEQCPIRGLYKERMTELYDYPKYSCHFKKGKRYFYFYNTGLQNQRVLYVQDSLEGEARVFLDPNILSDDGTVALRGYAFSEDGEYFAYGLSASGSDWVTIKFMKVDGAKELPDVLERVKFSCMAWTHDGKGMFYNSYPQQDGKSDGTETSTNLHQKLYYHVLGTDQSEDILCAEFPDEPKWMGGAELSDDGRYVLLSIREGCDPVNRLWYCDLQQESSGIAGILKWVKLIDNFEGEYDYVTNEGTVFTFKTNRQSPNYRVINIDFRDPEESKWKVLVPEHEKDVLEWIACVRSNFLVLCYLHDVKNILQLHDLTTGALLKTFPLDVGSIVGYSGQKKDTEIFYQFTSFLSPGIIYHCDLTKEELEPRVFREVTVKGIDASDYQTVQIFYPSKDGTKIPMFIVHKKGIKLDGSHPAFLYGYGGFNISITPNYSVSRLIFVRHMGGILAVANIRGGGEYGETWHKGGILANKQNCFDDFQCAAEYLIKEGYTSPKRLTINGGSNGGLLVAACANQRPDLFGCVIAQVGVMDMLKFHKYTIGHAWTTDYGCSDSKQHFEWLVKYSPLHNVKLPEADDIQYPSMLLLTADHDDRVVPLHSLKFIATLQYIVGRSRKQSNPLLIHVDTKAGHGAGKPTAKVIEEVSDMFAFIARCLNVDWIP
How it was run: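 Initial rates of fluorescence increase from 50 μM Z-Gly-Pro-AMC cleavage (ex 360/em 465 nm, 60 min, 32° C) give percent PREP activity versus no-compound control, and IC50 is interpolated. Enzyme used at 0.4 nM (final, example) in Tris pH 7.5 with EDTA, GSH, BSA and Brij-35; compounds span 1 nM to 30 μM.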

Compound | IC50
COc1ncc(Cn2nc3n(c2=O)[C@H](C(=O)N2CCC(F)(F)C2)CCC3)cc1Cl [Example 443, (5S)-2-[(5-Chloro-6-methoxypyridin-3-yl)methyl]-5-[(3,3-difluoropyrrolidin-1-yl)carbonyl]-5,6,7,8-tetrahydro[1,2,4]triazolo[4,3-a]pyridin-3(2H)-one] | 0.61 nM
O=C(C1CCc2nn(Cc3ccc(F)c(Cl)c3)c(=O)n21)N1CCC(F)(F)C1 (racemic) [Example 168, (5RS)-2-(3-Chloro-4-fluorobenzyl)-5-[(3,3-difluoropyrrolidin-1-yl)carbonyl]-2,5,6,7-tetrahydro-3H-pyrrolo[2,1-c][1,2,4]triazol-3-one] | 4.1 nM
O=C(C1CC(C(F)(F)F)Cc2nn(Cc3ccc(Cl)nc3)c(=O)n21)N1CC(F)C1 (single isomer, unassigned) [Example 240, (5RS,7RS)-2-[(6-Chloropyridin-3-yl)methyl]-5-[(3-fluoroazetidin-1-yl)carbonyl]-7-(trifluoromethyl)-5,6,7,8-tetrahydro[1,2,4]triazolo[4,3-a]pyridin-3(2H)-one] | 4.2 nM
O=C(C1CC(C(F)(F)F)Cc2nn(Cc3ncc(C(F)(F)F)cc3Cl)c(=O)n21)N1CCC(F)(F)C1 (single isomer, unassigned) [Example 565, (5RS,7RS)-2-{[3-Chloro-5-(trifluoromethyl)pyridin-2-yl]methyl}-5-[(3,3-difluoropyrrolidin-1-yl)carbonyl]-7-(trifluoromethyl)-5,6,7,8-tetrahydro[1,2,4]triazolo[4,3-a]pyridin-3(2H)-one] | 1.5 nM
O=C([C@@H]1CCCc2nn(Cc3cc(C(F)(F)F)nc4ccccc34)c(=O)n21)N1CCCC1 [Example 76, (5S)-5-(Pyrrolidin-1-ylcarbonyl)-2-{[2-(trifluoromethyl)quinolin-4-yl]methyl}-5,6,7,8-tetrahydro[1,2,4]triazolo[4,3-a]pyridin-3(2H)-one] | 0.38 nM
O=C([C@@H]1CCCc2nn(CC3(c4ccc(F)cc4)CC3)c(=O)n21)N1CC(F)C1 [Example 351, (5S)-5-[(3-Fluoroazetidin-1-yl)carbonyl]-2-{[1-(4-fluorophenyl)cyclopropyl]methyl}-5,6,7,8-tetrahydro[1,2,4]triazolo[4,3-a]pyridin-3(2H)-one] | 1.6 nM
CC(C)(C)c1ccc(Cn2nc3n(c2=O)C(C(=O)N2CCCC2)CCC3)cc1 (racemic) [Example 2, (5RS)-2-(4-tert-Butylbenzyl)-5-(pyrrolidin-1-ylcarbonyl)-5,6,7,8-tetrahydro[1,2,4]triazolo[4,3-a]pyridin-3(2H)-one] | 15.4 nM
O=C(C1CCc2nn(Cc3ccc(Cl)nc3)c(=O)n21)N1CC(F)C1 (racemic) [Example 169, (5RS)-2-[(6-Chloropyridin-3-yl)methyl]-5-[(3-fluoroazetidin-1-yl)carbonyl]-2,5,6,7-tetrahydro-3H-pyrrolo[2,1-c][1,2,4]triazol-3-one] | 31.5 nM
O=C([C@@H]1CCC(O)c2nn(Cc3ccc(C(F)(F)F)nc3)c(=O)n21)N1CC[C@H](F)C1 (mixture of isomers) [Example 275, (5S,8RS)-5-{[(3S)-3-Fluoropyrrolidin-1-yl]carbonyl}-8-hydroxy-2-{[6-(trifluoromethyl)pyridin-3-yl]methyl}-5,6,7,8-tetrahydro[1,2,4]triazolo[4,3-a]pyridin-3(2H)-one] | 1.15 nM
COc1ccc(Cn2nc3n(c2=O)[C@H](C(=O)N2C[C@@H](F)[C@@H](F)C2)CCC3)cn1 [Example 431, (5S)-5-{[(3R,4S)-3,4-Difluoropyrrolidin-1-yl]carbonyl}-2-[(6-methoxypyridin-3-yl)methyl]-5,6,7,8-tetrahydro[1,2,4]triazolo[4,3-a]pyridin-3(2H)-one] | 0.995 nM
O=C(C1CC(C(F)(F)F)Cc2nn(Cc3ccc(Cl)nc3)c(=O)n21)N1CCCC1 (single isomer, unassigned) [Example 229, (5RS,7RS)-2-[(6-Chloropyridin-3-yl)methyl]-5-(pyrrolidin-1-ylcarbonyl)-7-(trifluoromethyl)-5,6,7,8-tetrahydro[1,2,4]triazolo[4,3-a]pyridin-3(2H)-one] | 0.34 nM
O=C(C1CC(C(F)(F)F)Cc2nn(Cc3ccc(C(F)(F)F)nc3)c(=O)n21)N1CC(O)C1 (racemic) [Example 233, (5RS,7RS)-5-[(3-Hydroxyazetidin-1-yl)carbonyl]-7-(trifluoromethyl)-2-{[6-(trifluoromethyl)pyridin-3-yl]methyl}-5,6,7,8-tetrahydro[1,2,4]triazolo[4,3-a]pyridin-3(2H)-one] | 203 nM
CC1CCC(C(=O)N2C[C@@H](F)[C@@H](F)C2)n2c1nn(Cc1ccnc(C(F)(F)F)c1F)c2=O (mixture of isomers) [Example 322, (5RS,8RS)-5-{[(3R,4S)-3,4-Difluoropyrrolidin-1-yl]carbonyl}-2-{[3-fluoro-2-(trifluoromethyl)pyridin-4-yl]methyl}-8-methyl-5,6,7,8-tetrahydro[1,2,4]triazolo[4,3-a]pyridin-3(2H)-one] | 0.94 nM
O=C(C1CCc2nn(Cc3ccc(Cl)nc3)c(=O)n21)N1CCC(F)(F)C1 (racemic) [Example 166, (5RS)-2-[(6-Chloropyridin-3-yl)methyl]-5-[(3,3-difluoropyrrolidin-1-yl)carbonyl]-2,5,6,7-tetrahydro-3H-pyrrolo[2,1-c][1,2,4]triazol-3-one] | 22 nM
COc1ccc(Cn2nc3n(c2=O)C(C(=O)N2CCCC2)CCC3)cn1 (racemic) [Example 92, (5RS)-2-[(6-Methoxypyridin-3-yl)methyl]-5-(pyrrolidin-1-ylcarbonyl)-5,6,7,8-tetrahydro[1,2,4]triazolo[4,3-a]pyridin-3(2H)-one] | 3 nM

The remaining lines, values ahead:

IC50 | Compound
1.4 nM | O=C([C@@H]1CCCc2nn(Cc3cccc(C(F)(F)F)c3)c(=O)n21)N1CC(F)C1 [Example 447, (5S)-5-[(3-Fluoroazetidin-1-yl)carbonyl]-2-[3-(trifluoromethyl)benzyl]-5,6,7,8-tetrahydro[1,2,4]triazolo[4,3-a]pyridin-3(2H)-one]
8.65 nM | O=C([C@@H]1CCCc2nn(Cc3nccc(C(F)(F)F)c3Cl)c(=O)n21)N1CC[C@H](O)C1 [Example 391, (5S)-2-{[3-Chloro-4-(trifluoromethyl)pyridin-2-yl]methyl}-5-{[(3S)-3-hydroxypyrrolidin-1-yl]carbonyl}-5,6,7,8-tetrahydro[1,2,4]triazolo[4,3-a]pyridin-3(2H)-one]
2.6 nM | O=C([C@@H]1CCCc2nn(Cc3cc(C(F)(F)F)c(Cl)cn3)c(=O)n21)N1CC(F)C1 [Example 375, (5S)-2-{[5-Chloro-4-(trifluoromethyl)pyridin-2-yl]methyl}-5-[(3-fluoroazetidin-1-yl)carbonyl]-5,6,7,8-tetrahydro[1,2,4]triazolo[4,3-a]pyridin-3(2H)-one]
1.3 nM | O=C([C@@H]1CCCc2nn(Cc3cc(C(F)(F)F)c(Cl)cn3)c(=O)n21)N1C[C@@H](F)[C@@H](F)C1 [Example 372, (5S)-2-{[5-Chloro-4-(trifluoromethyl)pyridin-2-yl]methyl}-5-{[(3R,4S)-3,4-difluoropyrrolidin-1-yl]carbonyl}-5,6,7,8-tetrahydro[1,2,4]triazolo[4,3-a]pyridin-3(2H)-one]
0.7 nM | O=C([C@@H]1CCCc2nn(Cc3cncc(Br)c3)c(=O)n21)N1CC[C@H](F)C1 [Example 509, (5S)-2-[(5-Bromopyridin-3-yl)methyl]-5-{[(3S)-3-fluoropyrrolidin-1-yl]carbonyl}-5,6,7,8-tetrahydro[1,2,4]triazolo[4,3-a]pyridin-3(2H)-one]
11 nM | O=C([C@@H]1CCCc2nn(Cc3cccc(Cl)n3)c(=O)n21)N1CC(F)C1 [Example 384, (5S)-2-[(6-Chloropyridin-2-yl)methyl]-5-[(3-fluoroazetidin-1-yl)carbonyl]-5,6,7,8-tetrahydro[1,2,4]triazolo[4,3-a]pyridin-3(2H)-one]
0.41 nM | Cc1ccc(Cn2nc3n(c2=O)[C@H](C(=O)N2CC[C@@H](F)C2)CCC3)cc1 [Example 111, (5S)-5-{[(3R)-3-Fluoropyrrolidin-1-yl]carbonyl}-2-(4-methylbenzyl)-5,6,7,8-tetrahydro[1,2,4]triazolo[4,3-a]pyridin-3(2H)-one]
50.5 nM | CO[C@H]1CCN(C(=O)[C@@H]2CCCc3nn(Cc4ccc(C)cc4)c(=O)n32)C1 [Example 130, (5S)-{[(3S)-3-Methoxypyrrolidin-1-yl]carbonyl}-2-(4-methylbenzyl)-5,6,7,8-tetrahydro[1,2,4]triazolo[4,3-a]pyridin-3(2H)-one]
1.7 nM | O=C([C@@H]1CCCc2nn(Cc3ncc(C(F)(F)F)cc3Cl)c(=O)n21)N1CCCC1 [Example 106, (5S)-2-{[3-Chloro-5-(trifluoromethyl)pyridin-2-yl]methyl}-5-(pyrrolidin-1-ylcarbonyl)-5,6,7,8-tetrahydro[1,2,4]triazolo[4,3-a]pyridin-3(2H)-one]
